Data as given in patent US20260209220A1, “SUBSTITUTED TETRAHYDROPYRROLO-PYRIDINONE COMPOUNDS AND THEIR USE IN TREATING MEDICAL CONDITIONS” (Karuna Therapeutics, Inc., priority 2022, published 2026).

How the values were obtained:
rM4 receptors = molecular target: T1, rM4 receptors (Rattus norvegicus, UniProt P08485); assay: Rat M4 PAM PERK assay (CHO cells, TR-FRET, with EC20 acetylcholine); format: cell-based
T1 construct: expressed in transfected cells; host or cells: CHO cells
T1 sequence (P08485 1-478): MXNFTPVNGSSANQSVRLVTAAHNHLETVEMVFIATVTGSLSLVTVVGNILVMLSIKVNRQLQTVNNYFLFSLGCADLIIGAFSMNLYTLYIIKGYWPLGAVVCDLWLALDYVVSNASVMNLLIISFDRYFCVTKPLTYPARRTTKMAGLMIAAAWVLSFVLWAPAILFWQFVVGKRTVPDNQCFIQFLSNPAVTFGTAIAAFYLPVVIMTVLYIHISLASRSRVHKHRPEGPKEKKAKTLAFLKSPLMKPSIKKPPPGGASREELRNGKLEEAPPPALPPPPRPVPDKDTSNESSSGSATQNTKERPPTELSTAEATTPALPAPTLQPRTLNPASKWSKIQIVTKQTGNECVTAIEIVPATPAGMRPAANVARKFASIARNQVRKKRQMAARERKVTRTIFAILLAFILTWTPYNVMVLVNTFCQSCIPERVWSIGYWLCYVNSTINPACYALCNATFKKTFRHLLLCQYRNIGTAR
How it was run: (§1)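 CHO cells expressing human or rat M4, serum-starved 4 h, then given compound (10-point, 10 μM top, ½-log) with EC20 acetylcholine (10 nM final) for 5 min at 37 °C. Lysates assayed for phospho-ERK by TR-FRET after 2 h detection at RT.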

hM4 receptors = molecular target: T2, hM4 receptors (Homo sapiens, UniProt P08173); assay: Human M4 PAM PERK assay (CHO cells, TR-FRET, with EC20 acetylcholine); format: cell-based
T2 construct: expressed in transfected cells; host or cells: CHO cells
T2 sequence (P08173 1-479): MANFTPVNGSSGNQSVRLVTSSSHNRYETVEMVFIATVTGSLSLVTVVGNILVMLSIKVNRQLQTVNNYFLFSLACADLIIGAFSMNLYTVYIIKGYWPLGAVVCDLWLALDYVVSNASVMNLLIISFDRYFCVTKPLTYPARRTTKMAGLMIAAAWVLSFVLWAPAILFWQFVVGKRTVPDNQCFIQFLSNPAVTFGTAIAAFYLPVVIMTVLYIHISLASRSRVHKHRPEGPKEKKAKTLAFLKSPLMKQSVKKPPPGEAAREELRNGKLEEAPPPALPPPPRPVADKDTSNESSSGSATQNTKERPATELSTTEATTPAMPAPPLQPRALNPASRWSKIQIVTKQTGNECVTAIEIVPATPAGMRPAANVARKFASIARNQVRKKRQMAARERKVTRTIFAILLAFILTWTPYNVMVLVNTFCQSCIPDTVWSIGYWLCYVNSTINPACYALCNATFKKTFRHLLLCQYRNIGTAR
How it was run: as §1

human M4 receptor = molecular target: T3, human M4 receptor (Homo sapiens, UniProt P08173); assay: M4 GTPγS PAM assay (CHO-K1 membranes, 35S-GTP binding, with EC20 acetylcholine); format: biochemical; details: with EC20 acetylcholine (40 nM)
T3 construct: expressed in transfected cells; host or cells: CHO-K1 cells (membranes)
T3 sequence (P08173 1-479): T2 sequence (P08173 1-479)
How it was run: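 Membranes from CHO-K1 cells stably expressing human M4 ([…]) in 20 mM HEPES, 10 mM MgCl2, 100 mM NaCl, with 0.1 μM GDP final, were preincubated with compound 10-15 min at RT. Acetylcholine at EC20 (40 nM final) was added for 10-15 min, then 0.4 nM 35S-GTP solution for 1 h at RT. Filter-bound radioactivity was counted.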

SMILES	EC50 (rM4 receptors)	EC50 (hM4 receptors)	EC50 (human M4 receptor)
Cc1cc(=O)n(C)c2c1[C@H](C)N(C(=O)CC1CN(c3ccc(C(F)(F)F)cc3)C1)C2 [Compound I-116, (S)-1,4,5-trimethyl-6-(2-(1-(4-(trifluoromethyl)phenyl)azetidin-3-yl)acetyl)-1,5,6,7-tetrahydro-2H-pyrrolo[3,4-b]pyridin-2-one]	> 1000 nM	> 1000 nM	> 1000 nM
Cc1c2c(n(C)c(=O)c1C)CN(C(=O)CC1CN(c3ccc(F)c(OC4CC4)c3)C1)C2 [Compound I-63, 6-(2-(1-(3-cyclopropoxy-4-fluorophenyl)azetidin-3-yl)acetyl)-1,3,4-trimethyl-1,5,6,7-tetrahydro-2H-pyrrolo[3,4-b]pyridin-2-one]	200 to 1000 nM	200 to 1000 nM	< 50 nM
Cc1cc(=O)n(C)c2c1CN(C(=O)CC1CN(c3ccc(OC(F)(F)F)cc3)C1)C2 [Compound I-12]	200 to 1000 nM	200 to 1000 nM	50 to 200 nM
Cc1c2c(n(C)c(=O)c1F)CN(C(=O)CC1CN(c3cnc(C(F)(F)F)cn3)C1)C2 [Compound I-90]	50 to 200 nM	200 to 1000 nM	200 to 1000 nM
Cc1c2c(n(C)c(=O)c1Cl)CN(C(=O)CC1CN(c3ccnc(C(F)(F)F)c3)C1)C2 [Compound I-66, 3-Chloro-1,4-dimethyl-6-(2-(1-(2-(trifluoromethyl)pyridin-4-yl)azetidin-3-yl)acetyl)-1,5,6,7-tetrahydro-2H-pyrrolo[3,4-b]pyridin-2-one]	50 to 200 nM	< 50 nM	< 50 nM
Cc1cc(=O)n(C)c2c1CN(C(=O)CC1CN(c3ccc4c(c3)COC4)C1)C2 [Compound I-16]	200 to 1000 nM	50 to 200 nM	200 to 1000 nM

Second part, the molecule after the results:

EC50 (rM4 receptors)	EC50 (hM4 receptors)	EC50 (human M4 receptor)	SMILES
200 to 1000 nM	200 to 1000 nM	200 to 1000 nM	Cc1cc(=O)n(C)c2c1CN(C(=O)CC1CN(c3ccc(F)cc3)C1)C2 [Compound I-11]
200 to 1000 nM	200 to 1000 nM	200 to 1000 nM	Cc1cc(=O)n(C)c2c1CN(C(=O)CC1CN(c3nc(C(F)(F)F)ns3)C1)C2 [Compound I-28]
200 to 1000 nM	50 to 200 nM	50 to 200 nM	Cc1cc(=O)n(C)c2c1CN(C(=O)CC1CN(c3ccnc(C4CC4)n3)C1)C2 [Compound I-24]
